# Source: ChEMBL document CHEMBL1130299, “Time-dependent inhibition of neuronal nitric oxide synthase by N-propargylguanidine” (Bioorg Med Chem Lett, 1997)
# Tested on: Nitric oxide synthase 1 (Bos taurus)
# Assay: Inactivation constant for Neuronal nitric oxide synthase (nNOS) from bovine brain
smiles,measurement,value
C#CCNC(=N)N,K inact,0.39 min⁻¹
